Reference: the kinase profiling compilation of Christmann-Franck et al. (2016)

Key:
Assay in all cases: radiometric filter-binding kinase assay, Kinase HotSpot
Conditions in all cases: compound 0.5 µM; ATP 10 µM
TXK (human) = TXK (human) (UniProt P42681)
FRK (human) = FRK (human) (UniProt P42685)
RET (human) = RET (human) (UniProt P07949)
RPS6KA2 KD1 KD2 (human) = RPS6KA2 KD1 KD2 (human) (UniProt Q15349)
HIPK2 (human) = HIPK2 (human) (UniProt Q9H2X6)
MAP3K10 (human) = MAP3K10 (human) (UniProt Q02779)
PAK6 (human) = PAK6 (human) (UniProt Q9NQU5)
PLK1 (human) = PLK1 (human) (UniProt P53350)
AKT2 (human) = AKT2 (human) (UniProt P31751)
HIPK1 (human) = HIPK1 (human) (UniProt Q86Z02)
EPHB3 (human) = EPHB3 (human) (UniProt P54753)
CHEK1 (human) = CHEK1 (human) (UniProt O14757)
PNCK (human) = PNCK (human) (UniProt Q6P2M8)
PAK7 (human) = PAK7 (human) (UniProt Q9P286)
FGFR3 (human) = FGFR3 (human) (UniProt P22607)
PRKCI (human) = PRKCI (human) (UniProt P41743)
MAP3K5 (human) = MAP3K5 (human) (UniProt Q99683)
CSNK1G2 (human) = CSNK1G2 (human) (UniProt P78368)
AKT1 (human) = AKT1 (human) (UniProt P31749)
TGFBR2 (human) = TGFBR2 (human) (UniProt P37173)
EPHA7 (human) = EPHA7 (human) (UniProt Q15375)
PBK (human) = PBK (human) (UniProt Q96KB5)
PIM1 (human) = PIM1 (human) (UniProt P11309)
EPHB4 (human) = EPHB4 (human) (UniProt P54760)
MAPK3 (human) = MAPK3 (human) (UniProt P27361)
TSSK2 (human) = TSSK2 (human) (UniProt Q96PF2)
ULK2 (human) = ULK2 (human) (UniProt Q8IYT8)
PRKCA (human) = PRKCA (human) (UniProt P17252)
IKBKE (human) = IKBKE (human) (UniProt Q14164)
MAP4K2 (human) = MAP4K2 (human) (UniProt Q12851)
EPHA3 (human) = EPHA3 (human) (UniProt P29320)
MINK1 (human) = MINK1 (human) (UniProt Q8N4C8)
MAPK1 (human) = MAPK1 (human) (UniProt P28482)
MAP3K9 (human) = MAP3K9 (human) (UniProt P80192)
PDGFRB (human) = PDGFRB (human) (UniProt P09619)
FLT1 (human) = FLT1 (human) (UniProt P17948)
MAPK9 (human) = MAPK9 (human) (UniProt P45984)
PIM2 (human) = PIM2 (human) (UniProt Q9P1W9)
SYK (human) = SYK (human) (UniProt P43405)
FES (human) = FES (human) (UniProt P07332)
MLTK (human) = MLTK (human) (UniProt Q9NYL2)
MAPK8 (human) = MAPK8 (human) (UniProt P45983)
MAPK8 (human), sequence (P45983 whole entry, looked up): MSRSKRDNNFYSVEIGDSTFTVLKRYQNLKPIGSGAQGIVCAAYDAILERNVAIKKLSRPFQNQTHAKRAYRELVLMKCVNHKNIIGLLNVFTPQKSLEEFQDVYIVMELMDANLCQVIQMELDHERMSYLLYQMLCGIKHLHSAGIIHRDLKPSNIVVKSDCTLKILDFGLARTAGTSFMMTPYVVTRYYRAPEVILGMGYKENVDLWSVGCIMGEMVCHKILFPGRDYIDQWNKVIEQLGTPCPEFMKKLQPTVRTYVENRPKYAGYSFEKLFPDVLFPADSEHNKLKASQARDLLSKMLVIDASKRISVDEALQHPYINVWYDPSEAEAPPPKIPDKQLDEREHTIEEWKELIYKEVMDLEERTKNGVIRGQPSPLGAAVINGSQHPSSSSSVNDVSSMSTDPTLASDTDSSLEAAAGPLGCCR

MINK1 (human), sequence (Q8N4C8 whole entry, looked up): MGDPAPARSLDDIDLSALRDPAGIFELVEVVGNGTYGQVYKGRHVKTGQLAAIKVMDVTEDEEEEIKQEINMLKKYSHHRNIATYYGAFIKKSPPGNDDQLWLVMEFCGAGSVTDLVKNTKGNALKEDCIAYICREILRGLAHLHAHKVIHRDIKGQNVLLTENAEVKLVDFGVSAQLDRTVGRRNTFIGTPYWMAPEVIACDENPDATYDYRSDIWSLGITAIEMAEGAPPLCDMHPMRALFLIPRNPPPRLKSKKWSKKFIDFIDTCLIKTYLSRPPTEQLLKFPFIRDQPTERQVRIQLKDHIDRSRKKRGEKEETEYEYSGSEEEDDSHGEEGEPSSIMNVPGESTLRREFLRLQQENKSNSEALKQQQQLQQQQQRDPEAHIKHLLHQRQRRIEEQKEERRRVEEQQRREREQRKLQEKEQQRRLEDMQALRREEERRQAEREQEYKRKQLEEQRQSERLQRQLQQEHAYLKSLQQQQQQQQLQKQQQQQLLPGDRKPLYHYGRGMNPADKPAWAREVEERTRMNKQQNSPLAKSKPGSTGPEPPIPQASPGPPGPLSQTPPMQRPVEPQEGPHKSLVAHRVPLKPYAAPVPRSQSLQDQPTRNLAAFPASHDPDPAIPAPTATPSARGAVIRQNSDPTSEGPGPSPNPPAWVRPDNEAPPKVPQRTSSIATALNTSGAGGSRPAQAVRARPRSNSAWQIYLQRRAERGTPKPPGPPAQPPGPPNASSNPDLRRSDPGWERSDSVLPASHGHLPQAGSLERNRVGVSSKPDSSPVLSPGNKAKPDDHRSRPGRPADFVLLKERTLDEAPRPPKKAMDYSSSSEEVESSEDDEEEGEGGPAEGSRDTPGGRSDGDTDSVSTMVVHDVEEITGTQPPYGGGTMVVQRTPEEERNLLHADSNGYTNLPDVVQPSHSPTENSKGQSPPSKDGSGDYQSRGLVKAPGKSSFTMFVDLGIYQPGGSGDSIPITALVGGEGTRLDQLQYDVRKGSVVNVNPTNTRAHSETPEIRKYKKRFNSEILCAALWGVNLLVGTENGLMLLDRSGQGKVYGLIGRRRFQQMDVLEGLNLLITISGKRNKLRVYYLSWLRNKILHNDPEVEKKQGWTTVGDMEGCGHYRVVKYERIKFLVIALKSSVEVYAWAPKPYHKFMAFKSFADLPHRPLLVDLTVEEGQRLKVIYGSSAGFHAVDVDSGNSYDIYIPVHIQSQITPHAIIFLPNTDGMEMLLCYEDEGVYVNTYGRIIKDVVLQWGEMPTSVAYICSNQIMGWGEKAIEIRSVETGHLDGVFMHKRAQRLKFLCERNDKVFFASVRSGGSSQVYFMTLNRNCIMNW
TGFBR2 (human), sequence (P37173 whole entry, looked up): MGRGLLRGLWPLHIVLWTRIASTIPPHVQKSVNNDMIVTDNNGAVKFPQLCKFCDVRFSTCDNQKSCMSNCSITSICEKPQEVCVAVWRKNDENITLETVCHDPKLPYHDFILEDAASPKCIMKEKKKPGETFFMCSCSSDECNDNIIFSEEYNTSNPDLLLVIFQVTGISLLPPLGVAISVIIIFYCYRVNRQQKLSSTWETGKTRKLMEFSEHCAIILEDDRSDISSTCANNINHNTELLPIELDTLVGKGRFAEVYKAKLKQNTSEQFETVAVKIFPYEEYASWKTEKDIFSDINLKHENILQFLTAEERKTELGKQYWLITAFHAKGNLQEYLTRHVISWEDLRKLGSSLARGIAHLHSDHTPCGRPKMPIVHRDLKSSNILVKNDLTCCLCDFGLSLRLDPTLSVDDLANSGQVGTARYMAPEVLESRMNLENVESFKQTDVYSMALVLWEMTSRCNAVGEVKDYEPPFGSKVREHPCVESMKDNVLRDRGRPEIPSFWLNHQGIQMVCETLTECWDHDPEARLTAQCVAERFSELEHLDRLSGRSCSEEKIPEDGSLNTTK
IKBKE (human), sequence (Q14164 whole entry, looked up): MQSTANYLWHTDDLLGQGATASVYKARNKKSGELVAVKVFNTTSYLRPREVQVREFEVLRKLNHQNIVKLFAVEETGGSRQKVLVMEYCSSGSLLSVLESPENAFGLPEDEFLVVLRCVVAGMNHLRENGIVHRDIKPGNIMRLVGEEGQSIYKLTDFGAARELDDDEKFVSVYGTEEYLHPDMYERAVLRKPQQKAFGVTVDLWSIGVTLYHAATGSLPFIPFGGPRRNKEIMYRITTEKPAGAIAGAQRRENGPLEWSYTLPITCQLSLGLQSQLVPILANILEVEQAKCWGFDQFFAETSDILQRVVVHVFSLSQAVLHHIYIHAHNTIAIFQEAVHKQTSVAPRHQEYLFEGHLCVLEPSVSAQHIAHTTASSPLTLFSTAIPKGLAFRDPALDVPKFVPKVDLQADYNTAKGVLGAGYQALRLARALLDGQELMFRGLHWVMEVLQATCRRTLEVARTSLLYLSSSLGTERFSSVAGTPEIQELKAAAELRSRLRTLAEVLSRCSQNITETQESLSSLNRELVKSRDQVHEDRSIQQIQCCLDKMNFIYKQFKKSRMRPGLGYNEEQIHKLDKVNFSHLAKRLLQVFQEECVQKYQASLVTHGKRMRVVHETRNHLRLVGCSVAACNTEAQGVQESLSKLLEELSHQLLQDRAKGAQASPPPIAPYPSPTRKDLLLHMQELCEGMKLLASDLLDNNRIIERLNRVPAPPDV
PLK1 (human), sequence (P53350 whole entry, looked up): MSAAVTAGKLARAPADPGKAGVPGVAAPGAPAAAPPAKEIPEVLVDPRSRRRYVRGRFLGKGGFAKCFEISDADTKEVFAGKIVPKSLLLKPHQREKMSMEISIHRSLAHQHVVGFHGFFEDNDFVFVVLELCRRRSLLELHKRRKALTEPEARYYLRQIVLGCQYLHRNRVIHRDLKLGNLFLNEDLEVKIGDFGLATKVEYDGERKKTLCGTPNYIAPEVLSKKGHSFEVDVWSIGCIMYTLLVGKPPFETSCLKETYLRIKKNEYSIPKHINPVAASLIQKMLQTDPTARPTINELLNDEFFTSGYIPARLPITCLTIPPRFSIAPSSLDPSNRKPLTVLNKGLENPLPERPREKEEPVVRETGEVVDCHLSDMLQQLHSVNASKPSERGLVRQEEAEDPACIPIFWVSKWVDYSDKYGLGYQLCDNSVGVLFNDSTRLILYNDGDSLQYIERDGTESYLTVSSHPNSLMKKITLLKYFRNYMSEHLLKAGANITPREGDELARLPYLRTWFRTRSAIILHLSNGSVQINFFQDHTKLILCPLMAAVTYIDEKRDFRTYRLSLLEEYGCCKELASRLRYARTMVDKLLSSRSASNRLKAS
PBK (human), sequence (Q96KB5 whole entry, looked up): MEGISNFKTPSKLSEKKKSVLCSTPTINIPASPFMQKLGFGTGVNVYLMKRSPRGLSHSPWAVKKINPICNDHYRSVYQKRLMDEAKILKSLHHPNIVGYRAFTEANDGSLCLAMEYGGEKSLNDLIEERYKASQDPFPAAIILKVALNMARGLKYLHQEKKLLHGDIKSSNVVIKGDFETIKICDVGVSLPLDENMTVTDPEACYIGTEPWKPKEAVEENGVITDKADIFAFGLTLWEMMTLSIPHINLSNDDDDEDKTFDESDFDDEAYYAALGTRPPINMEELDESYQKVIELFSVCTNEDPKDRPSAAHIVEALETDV
CSNK1G2 (human), sequence (P78368 whole entry, looked up): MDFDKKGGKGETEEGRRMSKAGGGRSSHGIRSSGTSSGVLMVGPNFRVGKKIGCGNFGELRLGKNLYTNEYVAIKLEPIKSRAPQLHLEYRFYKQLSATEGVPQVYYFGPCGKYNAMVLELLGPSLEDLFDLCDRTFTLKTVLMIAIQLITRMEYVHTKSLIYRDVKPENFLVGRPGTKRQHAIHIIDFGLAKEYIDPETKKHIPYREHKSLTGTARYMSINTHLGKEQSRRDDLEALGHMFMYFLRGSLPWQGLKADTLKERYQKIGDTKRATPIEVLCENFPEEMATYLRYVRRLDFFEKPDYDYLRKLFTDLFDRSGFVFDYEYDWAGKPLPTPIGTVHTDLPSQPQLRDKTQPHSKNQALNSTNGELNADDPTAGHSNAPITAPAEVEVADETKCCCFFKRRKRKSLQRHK
MAPK1 (human), sequence (P28482 whole entry, looked up): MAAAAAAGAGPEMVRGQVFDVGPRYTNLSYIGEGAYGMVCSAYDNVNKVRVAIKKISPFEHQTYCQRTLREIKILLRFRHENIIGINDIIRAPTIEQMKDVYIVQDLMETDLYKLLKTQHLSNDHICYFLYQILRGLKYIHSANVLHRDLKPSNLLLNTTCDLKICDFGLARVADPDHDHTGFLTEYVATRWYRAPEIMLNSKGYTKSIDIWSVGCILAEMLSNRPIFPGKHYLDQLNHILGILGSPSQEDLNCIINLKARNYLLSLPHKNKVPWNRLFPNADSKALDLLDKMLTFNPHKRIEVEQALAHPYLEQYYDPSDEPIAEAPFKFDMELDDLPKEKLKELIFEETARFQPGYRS

CCCCc1c(-c2ccc(OC)cc2)[nH]c2nccnc12
residual activity (TXK (human)): 72.7% | residual activity (FRK (human)): 86.5% | residual activity (RET (human)): 56.3% | residual activity (RPS6KA2 KD1 KD2 (human)): 93% | residual activity (HIPK2 (human)): 109% | residual activity (MAP3K10 (human)): 82.7% | residual activity (PAK6 (human)): 96.8% | residual activity (PLK1 (human)): 104% | residual activity (AKT2 (human)): 93.8% | residual activity (HIPK1 (human)): 109% | residual activity (EPHB3 (human)): 99.8% | residual activity (CHEK1 (human)): 93.1% | residual activity (PNCK (human)): 120% | residual activity (PAK7 (human)): 88.1% | residual activity (FGFR3 (human)): 86.8% | residual activity (PRKCI (human)): 72.8% | residual activity (MAP3K5 (human)): 95% | residual activity (CSNK1G2 (human)): 92.5% | residual activity (AKT1 (human)): 113% | residual activity (TGFBR2 (human)): 74.8% | residual activity (EPHA7 (human)): 98% | residual activity (PBK (human)): 80.6% | residual activity (PIM1 (human)): 97% | residual activity (EPHB4 (human)): 89.5% | residual activity (MAPK3 (human)): 111% | residual activity (TSSK2 (human)): 93.7% | residual activity (ULK2 (human)): 108% | residual activity (PRKCA (human)): 92.7% | residual activity (IKBKE (human)): 100% | residual activity (MAP4K2 (human)): 65.1% | residual activity (EPHA3 (human)): 91.9% | residual activity (MINK1 (human)): 84.4% | residual activity (MAPK1 (human)): 103% | residual activity (MAP3K9 (human)): 39.8% | residual activity (PDGFRB (human)): 95.9% | residual activity (FLT1 (human)): 103% | residual activity (MAPK9 (human)): 84.8% | residual activity (PIM2 (human)): 115% | residual activity (SYK (human)): 47.5% | residual activity (FES (human)): 66% | residual activity (MLTK (human)): 83.6% | residual activity (MAPK8 (human)): 74.5%

c1ccc2c(-c3ccncc3)c[nH]c2c1
residual activity (TXK (human)): 104% | residual activity (FRK (human)): 106% | residual activity (RET (human)): 97.3% | residual activity (RPS6KA2 KD1 KD2 (human)): 89% | residual activity (HIPK2 (human)): 94.1% | residual activity (MAP3K10 (human)): 101% | residual activity (PAK6 (human)): 104% | residual activity (PLK1 (human)): 102% | residual activity (AKT2 (human)): 96.4% | residual activity (HIPK1 (human)): 97.4% | residual activity (EPHB3 (human)): 100% | residual activity (CHEK1 (human)): 104% | residual activity (PNCK (human)): 98.5% | residual activity (PAK7 (human)): 93.8% | residual activity (FGFR3 (human)): 98.9% | residual activity (PRKCI (human)): 82.4% | residual activity (MAP3K5 (human)): 109% | residual activity (CSNK1G2 (human)): 95% | residual activity (AKT1 (human)): 100% | residual activity (TGFBR2 (human)): 119% | residual activity (EPHA7 (human)): 98.2% | residual activity (PBK (human)): 97.1% | residual activity (PIM1 (human)): 93.5% | residual activity (EPHB4 (human)): 89.7% | residual activity (MAPK3 (human)): 98.9% | residual activity (TSSK2 (human)): 96.9% | residual activity (ULK2 (human)): 106% | residual activity (PRKCA (human)): 97.4% | residual activity (IKBKE (human)): 96.4% | residual activity (MAP4K2 (human)): 101% | residual activity (EPHA3 (human)): 107% | residual activity (MINK1 (human)): 84.6% | residual activity (MAPK1 (human)): 100% | residual activity (MAP3K9 (human)): 83.3% | residual activity (PDGFRB (human)): 105% | residual activity (FLT1 (human)): 97.9% | residual activity (MAPK9 (human)): 103% | residual activity (PIM2 (human)): 105% | residual activity (SYK (human)): 98.6% | residual activity (FES (human)): 105% | residual activity (MLTK (human)): 102% | residual activity (MAPK8 (human)): 100%

CC(C)(C)c1cc(C=C(C#N)C#N)cc(Br)c1O
residual activity (TXK (human)): 108% | residual activity (FRK (human)): 99.3% | residual activity (RET (human)): 98.2% | residual activity (RPS6KA2 KD1 KD2 (human)): 98.9% | residual activity (HIPK2 (human)): 110% | residual activity (MAP3K10 (human)): 100% | residual activity (PAK6 (human)): 101% | residual activity (PLK1 (human)): 92.3% | residual activity (AKT2 (human)): 97.7% | residual activity (HIPK1 (human)): 104% | residual activity (EPHB3 (human)): 107% | residual activity (CHEK1 (human)): 100% | residual activity (PNCK (human)): 107% | residual activity (PAK7 (human)): 119% | residual activity (FGFR3 (human)): 92.8% | residual activity (PRKCI (human)): 100% | residual activity (MAP3K5 (human)): 100% | residual activity (CSNK1G2 (human)): 100% | residual activity (AKT1 (human)): 108% | residual activity (TGFBR2 (human)): 93.8% | residual activity (EPHA7 (human)): 107% | residual activity (PBK (human)): 102% | residual activity (PIM1 (human)): 94.7% | residual activity (MAPK3 (human)): 105% | residual activity (TSSK2 (human)): 96.6% | residual activity (ULK2 (human)): 103% | residual activity (PRKCA (human)): 81.4% | residual activity (IKBKE (human)): 86.8% | residual activity (MAP4K2 (human)): 113% | residual activity (EPHA3 (human)): 102% | residual activity (MINK1 (human)): 111% | residual activity (MAPK1 (human)): 91.3% | residual activity (MAP3K9 (human)): 90.2% | residual activity (PDGFRB (human)): 104% | residual activity (FLT1 (human)): 92.5% | residual activity (MAPK9 (human)): 103% | residual activity (PIM2 (human)): 115% | residual activity (SYK (human)): 97.6% | residual activity (FES (human)): 105% | residual activity (MLTK (human)): 91.2% | residual activity (MAPK8 (human)): 90.4%
